Results: patent publication US8324280B2, “Treatment of prostate cancer with DDC inhibitor” (The University of British Columbia, priority 2008, dated 2012)

Test system: C4-2 xenografts
Experiment: Androgen-independent C4-2 tumour xenografts in pre-castrated mice
Type: in vivo
Protocol: Parental C4-2 cells were inoculated subcutaneously (s.c.), after resuspension in 0.1 mL of Matrigel (Becton Dickinson Labware), into two flank regions (2.5×10^6 cells/site) of 6 to 8 week old castrated (to ensure tumors will be androgen-independent) male athymic nude mice (Harlan Sprague Dawley, Inc.) via a 27-gauge needle under halothane anesthesia. Tumour volume and serum PSA measurements (blood collected from the tail vein) were performed once per week after tumours became palpable. PSA levels were measured by ELISA (ClinPro International) and tumour size was calculated by the formula; length×width×depth×0.5236. Once serum PSA values reached 75-100 ng/mL, mice were treated with or without carbidopa. Carbidopa was purchased from Sigma and dissolved in DMSO. The solution was diluted in PBS to a final concentration of 10% DMSO and sterilized through a 0.2 μm filter. Carbidopa solution was injected intraperitoneally into half of the mice (25 mg per kg of body weight) for the +carbidopa groups, while the remaining mice received vehicle injections consisting of 10% DMSO in PBS (−carbidopa groups). Injections were carried out daily for the duration of the experiment. Each animal group contained 2-3 mice. PSA measurements were used to calculate PSA velocity and volume measurements were used to determine the tumour growth rate for all groups with linear regression slope analysis (see Statistical Analysis below). PSA velocity was defined as the increase in PSA level (normalized to pre-treatment value set at 100%) divided by number of days that PSA was reliably measurable (21 days). […] All animal procedures were performed according to the guidelines of the Canadian Council of Animal Care and with appropriate institutional certification. C4-2 xenograft tumour volume and PSA values (−/+carbidopa) were used for linear regression slope analysis to determine PSA velocity and tumour growth rate with GraphPad Prism 4, version 4.03. PSA velocity and tumour growth rate differences were determined using the Student's t-test.

C[C@@](Cc1ccc(O)c(O)c1)(NN)C(=O)O [carbidopa, α-Methyl-dopahydrazine]
reduction of tumour growth rate versus control (21 days): 2.1 fold | decrease in PSA velocity versus control non-treated (over 21 days): 4.1 fold | tumour growth rate (pre-castrated mice, 25 mg/kg i.p. daily, 21 days): 5.7±0.6 | PSA velocity (rate of PSA production) (pre-castrated mice, 25 mg/kg i.p. daily, over 21 days): 4.7±2
